From US20230364070A1, “PYRROLO[3,2-C]PYRIDIN-4-ONE DERIVATIVES USEFUL IN THE TREATMENT OF CANCER” (Scorpion Therapeutics, Inc., priority 2020, published 2023)

What was measured:
Format in all cases: cell-based
Ba/F3 cells with EGFR WT = target: T1, Ba/F3 cells with EGFR WT (Homo sapiens, UniProt P00533); experiment: EGFR activity: Ba/F3 cell viability (CellTiter-Glo, 72 h), EGFR WT; conditions: read-out: BaF3 WT IC50
T1 construct: expressed in transfected cells; host or cells: Ba/F3 (murine pro-B cells), retroviral transduction, puromycin selection, maintained with EGF

[1] = target: T2, Ba/F3 cells with EGFR exon 20 NPG Ins D770_N771 (Homo sapiens, UniProt P00533, INS770NPG); experiment: EGFR activity: Ba/F3 cell viability (CellTiter-Glo, 72 h), EGFR exon 20 NPG insertion; conditions: EGFR exon 20 NPG Ins D770_N771, cell viability, read-out: BaF3 NPG IC50
T2 construct: expressed in transfected cells; host or cells: Ba/F3 (murine pro-B cells), retroviral transduction, puromycin selection, IL3-independent pool

[2] = target: T3, Ba/F3 cells with EGFR exon 20 ASV Ins V769_D770 (Homo sapiens, UniProt P00533, INS769ASV); experiment: EGFR activity: Ba/F3 cell viability (CellTiter-Glo, 72 h), EGFR exon 20 ASV insertion; conditions: EGFR exon 20 ASV Ins V769_D770, cell viability, read-out: BaF3 ASV IC50
T3 construct: expressed in transfected cells; host or cells: Ba/F3 (murine pro-B cells), retroviral transduction, puromycin selection, IL3-independent pool

pEGFR in CUTO14 cells = target: T4, pEGFR in CUTO14 cells (Homo sapiens, UniProt P00533, DUP767-769); experiment: Inhibitor activity on EGFR phosphorylation (pEGFR AlphaLISA, 2 h), CUTO14 cells
T4 construct: endogenous in cells; host or cells: CUTO14 cells
Description: CUTO14 cells were obtained from Dr. Robert C. Doebele at the University of Colorado.
Shake 350 rpm for 1 hr in the dark • 3.4 Prepare donor mix under low light conditions prior to use. Dispense 5 μL of donor mix to all the wells. Mix well on the shaker, seal and wrap in aluminum foil and incubate 1.5 hrs at room temperature in the dark • 3.5 Transfer 18.5 μL mixture to OptiPlate 384, and read using an Envision.

T2 sequence (P00533 with tags, fused parts or gaps INS770NPG): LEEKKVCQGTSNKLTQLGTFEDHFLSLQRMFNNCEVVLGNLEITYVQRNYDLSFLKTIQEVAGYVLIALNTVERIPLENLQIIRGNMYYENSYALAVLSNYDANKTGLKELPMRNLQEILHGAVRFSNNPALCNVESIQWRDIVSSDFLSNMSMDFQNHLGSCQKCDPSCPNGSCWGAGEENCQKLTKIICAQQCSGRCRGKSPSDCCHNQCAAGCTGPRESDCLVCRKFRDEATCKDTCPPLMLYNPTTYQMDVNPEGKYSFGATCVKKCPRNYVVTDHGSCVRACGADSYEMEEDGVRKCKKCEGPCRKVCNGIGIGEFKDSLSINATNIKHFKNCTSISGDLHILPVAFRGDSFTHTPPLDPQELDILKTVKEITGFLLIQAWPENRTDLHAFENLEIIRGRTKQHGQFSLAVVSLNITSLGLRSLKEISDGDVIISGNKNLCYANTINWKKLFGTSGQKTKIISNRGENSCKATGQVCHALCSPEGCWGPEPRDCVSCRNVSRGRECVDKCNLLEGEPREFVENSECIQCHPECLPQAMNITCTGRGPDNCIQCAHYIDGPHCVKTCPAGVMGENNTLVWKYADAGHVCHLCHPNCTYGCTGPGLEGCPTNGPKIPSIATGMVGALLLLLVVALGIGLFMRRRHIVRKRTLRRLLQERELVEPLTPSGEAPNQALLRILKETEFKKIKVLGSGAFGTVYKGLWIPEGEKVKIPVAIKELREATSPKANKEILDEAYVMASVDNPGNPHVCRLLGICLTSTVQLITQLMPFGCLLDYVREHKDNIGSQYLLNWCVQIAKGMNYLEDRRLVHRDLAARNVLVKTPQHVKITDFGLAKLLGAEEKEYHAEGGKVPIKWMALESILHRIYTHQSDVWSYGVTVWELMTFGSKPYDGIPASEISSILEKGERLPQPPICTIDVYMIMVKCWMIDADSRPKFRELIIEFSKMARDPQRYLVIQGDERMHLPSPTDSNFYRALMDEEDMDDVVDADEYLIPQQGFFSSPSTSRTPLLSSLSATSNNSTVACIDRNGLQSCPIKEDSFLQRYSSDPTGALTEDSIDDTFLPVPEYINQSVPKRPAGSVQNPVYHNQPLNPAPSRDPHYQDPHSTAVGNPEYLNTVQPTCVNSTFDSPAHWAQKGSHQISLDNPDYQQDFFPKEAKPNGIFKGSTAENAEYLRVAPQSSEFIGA
T1 sequence (P00533 25-1210): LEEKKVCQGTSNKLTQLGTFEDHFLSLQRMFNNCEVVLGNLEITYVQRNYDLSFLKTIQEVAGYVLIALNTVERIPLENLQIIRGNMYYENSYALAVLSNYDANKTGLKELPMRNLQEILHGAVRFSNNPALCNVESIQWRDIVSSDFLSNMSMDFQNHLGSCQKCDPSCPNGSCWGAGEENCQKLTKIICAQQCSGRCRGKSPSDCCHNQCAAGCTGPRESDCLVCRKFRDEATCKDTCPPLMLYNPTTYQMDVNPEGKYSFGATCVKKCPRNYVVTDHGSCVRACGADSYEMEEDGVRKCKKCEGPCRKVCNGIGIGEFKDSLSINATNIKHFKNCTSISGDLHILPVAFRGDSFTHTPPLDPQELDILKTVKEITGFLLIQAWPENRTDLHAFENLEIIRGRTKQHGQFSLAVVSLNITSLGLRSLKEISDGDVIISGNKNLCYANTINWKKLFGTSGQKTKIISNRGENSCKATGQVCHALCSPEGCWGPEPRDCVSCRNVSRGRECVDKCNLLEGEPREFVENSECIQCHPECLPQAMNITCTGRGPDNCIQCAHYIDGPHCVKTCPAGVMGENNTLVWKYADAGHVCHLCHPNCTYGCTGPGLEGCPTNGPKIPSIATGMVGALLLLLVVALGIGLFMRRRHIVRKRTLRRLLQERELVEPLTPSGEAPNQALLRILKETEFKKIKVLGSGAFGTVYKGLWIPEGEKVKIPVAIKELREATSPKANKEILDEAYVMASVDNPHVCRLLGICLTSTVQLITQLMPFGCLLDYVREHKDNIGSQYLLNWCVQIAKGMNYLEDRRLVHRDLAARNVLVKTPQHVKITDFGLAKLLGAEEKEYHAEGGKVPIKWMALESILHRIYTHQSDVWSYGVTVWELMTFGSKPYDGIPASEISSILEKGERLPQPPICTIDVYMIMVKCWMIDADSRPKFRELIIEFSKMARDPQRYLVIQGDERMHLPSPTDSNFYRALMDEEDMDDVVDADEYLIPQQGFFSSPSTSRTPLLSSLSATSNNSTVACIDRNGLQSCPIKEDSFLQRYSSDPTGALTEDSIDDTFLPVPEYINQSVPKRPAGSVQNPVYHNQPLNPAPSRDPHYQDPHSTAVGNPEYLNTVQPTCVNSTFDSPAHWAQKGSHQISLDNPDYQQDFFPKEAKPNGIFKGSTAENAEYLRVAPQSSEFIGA
T3 sequence (P00533 with tags, fused parts or gaps INS769ASV): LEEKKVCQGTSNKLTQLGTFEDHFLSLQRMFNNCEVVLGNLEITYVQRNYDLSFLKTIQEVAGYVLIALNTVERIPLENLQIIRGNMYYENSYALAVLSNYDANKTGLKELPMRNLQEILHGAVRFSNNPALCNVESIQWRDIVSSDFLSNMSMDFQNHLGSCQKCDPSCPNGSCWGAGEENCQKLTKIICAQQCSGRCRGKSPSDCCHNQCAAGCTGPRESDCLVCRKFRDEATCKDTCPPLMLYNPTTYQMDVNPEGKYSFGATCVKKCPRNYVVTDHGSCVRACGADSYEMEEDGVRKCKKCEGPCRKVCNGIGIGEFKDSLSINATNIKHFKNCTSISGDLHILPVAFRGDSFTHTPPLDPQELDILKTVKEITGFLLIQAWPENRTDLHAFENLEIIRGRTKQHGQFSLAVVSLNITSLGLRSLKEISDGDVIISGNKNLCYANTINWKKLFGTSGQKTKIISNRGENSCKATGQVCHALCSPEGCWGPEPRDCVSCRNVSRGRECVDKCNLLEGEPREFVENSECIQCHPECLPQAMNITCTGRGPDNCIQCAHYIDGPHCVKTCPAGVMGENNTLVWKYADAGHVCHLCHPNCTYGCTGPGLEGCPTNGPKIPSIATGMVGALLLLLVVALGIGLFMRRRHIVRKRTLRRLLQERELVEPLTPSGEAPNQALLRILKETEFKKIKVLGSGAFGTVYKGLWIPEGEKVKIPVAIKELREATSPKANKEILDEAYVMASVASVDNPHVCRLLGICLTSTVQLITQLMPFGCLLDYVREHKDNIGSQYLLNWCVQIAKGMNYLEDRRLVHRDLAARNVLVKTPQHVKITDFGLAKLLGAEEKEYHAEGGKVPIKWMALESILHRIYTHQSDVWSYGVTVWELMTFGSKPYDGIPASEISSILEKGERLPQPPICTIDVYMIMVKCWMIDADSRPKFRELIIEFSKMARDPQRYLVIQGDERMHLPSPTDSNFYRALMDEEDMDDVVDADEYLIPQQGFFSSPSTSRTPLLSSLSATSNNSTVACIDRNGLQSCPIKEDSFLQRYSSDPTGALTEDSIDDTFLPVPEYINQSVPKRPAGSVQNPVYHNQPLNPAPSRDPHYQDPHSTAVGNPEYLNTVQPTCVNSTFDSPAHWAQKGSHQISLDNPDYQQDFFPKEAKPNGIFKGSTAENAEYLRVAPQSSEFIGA
T4 sequence (P00533 with tags, fused parts or gaps DUP767-769): as the sequence (P00533 with tags, fused parts or gaps INS769ASV) above

SMILES | IC50 (pEGFR in CUTO14 cells) [µM] | IC50 (Ba/F3 cells with EGFR WT) [µM] | IC50 [1] [µM] | IC50 [2] [µM]
COc1c(Cl)cccc1Nc1c(-c2ccncc2C#C[C@@]2(NC(=O)/C=C/CN(C)C)CCOC2)[nH]c2c1C(=O)NCC2 [compound 420] | < 0.1 | 0.1 to 1 | < 0.1 | < 0.1
COc1c(Cl)cccc1Nc1c(-c2ccncc2C#C[C@]2(NC(=O)/C=C/CN(C)C)CCOC2)[nH]c2c1C(=O)NCC2 [compound 421] | < 0.1 | > 1 | < 0.1 | < 0.1
CC#CC(=O)N1CCOC[C@H]1COc1cnccc1-c1[nH]c2c(c1Nc1cccc(Cl)c1OC)C(=O)NCC2 [compound 429] | 0.1 to 1 | 0.1 to 1 | < 0.1 | 0.1 to 1
C=CC(=O)N1CCC[C@]1(C)C#Cc1cnccc1-c1[nH]c2c(c1Nc1cc(F)cc(Cl)c1OC)C(=O)NCC2 [compound 430] | < 0.1 | 0.1 to 1 | < 0.1 | < 0.1
CC#CC(=O)N1CCC[C@]1(C)C#Cc1cnccc1-c1[nH]c2c(c1Nc1cc(F)cc(Cl)c1OC)C(=O)NCC2 [compound 431] | < 0.1 | 0.1 to 1 | < 0.1 | < 0.1
COc1c(Cl)cccc1Nc1c(-c2ccncc2C#C[C@@]2(C)CCCN2C(=O)C#CCN(C)C)[nH]c2c1C(=O)NCC2 [compound 433] | < 0.1 | 0.1 to 1 | < 0.1 | < 0.1
C=CC(=O)NC1(C#Cc2cnccc2-c2[nH]c3c(c2Nc2cc(F)cc(Cl)c2OC)C(=O)NCC3)COC1 [compound 440] | < 0.1 | 0.1 to 1 | < 0.1 | < 0.1
COc1c(F)cccc1Nc1c(-c2ccncc2C#C[C@@]2(C)CCCN2C(=O)/C=C/CN2CCOCC2)[nH]c2c1C(=O)NCC2 [compound 442] | 0.1 to 1 | > 1 | 0.1 to 1 | 0.1 to 1
CC#CC(=O)N1CC[C@@H]1COc1cnccc1-c1[nH]c2c(c1Nc1cccc(C(F)F)c1OC)C(=O)NCC2 [compound 446] | < 0.1 | 0.1 to 1 | < 0.1 | < 0.1
C#CC(=O)N1CC[C@@H]1COc1cnccc1-c1[nH]c2c(c1Nc1cccc(Cl)c1OC)C(=O)NCC2 [compound 447] | < 0.1 | 0.1 to 1 | < 0.1 | < 0.1
C=CC(=O)NC(C)(C)COc1cnccc1-c1[nH]c2c(c1Nc1cccc(Cl)c1OC)C(=O)NCC2 [compound 448] | < 0.1 | 0.1 to 1 | < 0.1 | < 0.1
Cc1c(F)cccc1Nc1c(-c2ccncc2C#CC(C)(C)NC(=O)/C=C/CN(C)C)[nH]c2c1C(=O)NCC2 [compound 449] | < 0.1 | 0.1 to 1 | < 0.1 | < 0.1
C=CC(=O)N1CC2CC1(C#Cc1cnccc1-c1[nH]c3c(c1Nc1cccc(F)c1C)C(=O)NCC3)C2 [compound 452] | < 0.1 | 0.1 to 1 | < 0.1 | < 0.1
CCc1c(F)cccc1Nc1c(-c2ccncc2C#CC(C)(C)NC(=O)/C=C/CN(C)C)[nH]c2c1C(=O)NCC2 [compound 453] | < 0.1 | 0.1 to 1 | < 0.1 | < 0.1
COc1c(F)cccc1Nc1c(-c2ccncc2C#CC(C)(C)NC(=O)/C=C/CN2CC(F)C2)[nH]c2c1C(=O)NCC2 [compound 463] | < 0.1 | > 1 | < 0.1 | 0.1 to 1
COc1c(F)cccc1Nc1c(-c2ccncc2C#CC(C)(C)NC(=O)/C=C/CN2CCN(C)CC2)[nH]c2c1C(=O)NCC2 [compound 464] | 0.1 to 1 | > 1 | > 1 | > 1
COc1c(F)cccc1Nc1c(-c2ccncc2C#CC(C)(C)NC(=O)C#CCN(C)C)[nH]c2c1C(=O)NCC2 [compound 465] | < 0.1 | 0.1 to 1 | < 0.1 | < 0.1
C=CC(=O)N1CCN(C)C[C@@H]1COc1cnccc1-c1[nH]c2c(c1Nc1cccc(Cl)c1OC)C(=O)NCC2 [compound 565] | 0.1 to 1 | > 1 | 0.1 to 1 | 0.1 to 1

The next lines start with results.

IC50 (pEGFR in CUTO14 cells) [µM] | SMILES | IC50 (Ba/F3 cells with EGFR WT) [µM] | IC50 [1] [µM] | IC50 [2] [µM]
0.1 to 1 | COc1c(F)cccc1Nc1c(-c2ccncc2C#C[C@]2(NC(=O)/C=C/CN(C)C)CCOC2)[nH]c2c1C(=O)NCC2 [compound 418] | > 1 | 0.1 to 1 | 0.1 to 1
0.1 to 1 | COc1c(F)cccc1Nc1c(-c2ccncc2C#C[C@@]2(NC(=O)/C=C/CN(C)C)CCOC2)[nH]c2c1C(=O)NCC2 [compound 419] | > 1 | 0.1 to 1 | 0.1 to 1
< 0.1 | COc1c(F)cccc1Nc1c(-c2ccncc2OC[C@@]2(C)CCN2C(=O)/C=C/CN(C)C)[nH]c2c1C(=O)NCC2 [compound 422] | 0.1 to 1 | < 0.1 | < 0.1
< 0.1 | COc1c(F)cccc1Nc1c(-c2ccncc2OC[C@]2(C)CCN2C(=O)/C=C/CN(C)C)[nH]c2c1C(=O)NCC2 [compound 423] | > 1 | < 0.1 | < 0.1
< 0.1 | COc1c(Cl)cccc1Nc1c(-c2ccncc2OC[C@]2(C)CCN2C(=O)/C=C/CN(C)C)[nH]c2c1C(=O)NCC2 [compound 424] | 0.1 to 1 | < 0.1 | < 0.1
< 0.1 | COc1c(Cl)cccc1Nc1c(-c2ccncc2OC[C@@]2(C)CCN2C(=O)/C=C/CN(C)C)[nH]c2c1C(=O)NCC2 [compound 425] | 0.1 to 1 | < 0.1 | < 0.1
< 0.1 | CCc1c(F)cccc1Nc1c(-c2ccncc2OC[C@@]2(C)CCN2C(=O)/C=C/CN(C)C)[nH]c2c1C(=O)NCC2 [compound 426] | 0.1 to 1 | < 0.1 | < 0.1
< 0.1 | CCc1c(F)cccc1Nc1c(-c2ccncc2OC[C@]2(C)CCN2C(=O)/C=C/CN(C)C)[nH]c2c1C(=O)NCC2 [compound 427] | 0.1 to 1 | < 0.1 | < 0.1
< 0.1 | COc1c(F)cccc1Nc1c(-c2ccncc2C#C[C@@]2(C)CCCN2C(=O)C#CCN(C)C)[nH]c2c1C(=O)NCC2 [compound 434] | 0.1 to 1 | < 0.1 | < 0.1
< 0.1 | COc1c(Cl)cc(F)cc1Nc1c(-c2ccncc2C#C[C@@]2(C)CCCN2C(=O)/C=C/CN(C)C)[nH]c2c1C(=O)NCC2 [compound 435] | 0.1 to 1 | < 0.1 | < 0.1
< 0.1 | COc1c(Cl)cccc1Nc1c(-c2ccncc2C#CC23CC(CN2C(=O)/C=C/CN(C)C)C3)[nH]c2c1C(=O)NCC2 [compound 436] | 0.1 to 1 | < 0.1 | < 0.1
< 0.1 | COc1c(F)cccc1Nc1c(-c2ccncc2C#CC23CC(CN2C(=O)/C=C/CN(C)C)C3)[nH]c2c1C(=O)NCC2 [compound 437] | 0.1 to 1 | < 0.1 | < 0.1
< 0.1 | COc1c(F)cccc1Nc1c(-c2ccncc2C#C[C@@]2(C)CCCN2C(=O)/C=C/CN2CC(OC)C2)[nH]c2c1C(=O)NCC2 [compound 441] | 0.1 to 1 | < 0.1 | < 0.1
< 0.1 | COc1c(F)cccc1Nc1c(-c2ccncc2C#C[C@@]2(C)CCCN2C(=O)/C=C/CN2CC[C@H](OC)C2)[nH]c2c1C(=O)NCC2 [compound 443] | 0.1 to 1 | < 0.1 | < 0.1
< 0.1 | COc1c(F)cccc1Nc1c(-c2ccncc2C#C[C@@]2(C)CCCN2C(=O)/C=C/CN2CC[C@@H](OC)C2)[nH]c2c1C(=O)NCC2 [compound 444] | 0.1 to 1 | < 0.1 | < 0.1
0.1 to 1 | COc1c(F)cccc1Nc1c(-c2ccncc2C#C[C@@]2(C)CCCN2C(=O)/C=C/CN2CC(F)(F)C2)[nH]c2c1C(=O)NCC2 [compound 445] | > 1 | 0.1 to 1 | 0.1 to 1
< 0.1 | Cc1c(F)cccc1Nc1c(-c2ccncc2C#C[C@@]2(C)CCCN2C(=O)/C=C/CN(C)C)[nH]c2c1C(=O)NCC2 [compound 450] | 0.1 to 1 | < 0.1 | < 0.1
< 0.1 | Cc1c(F)cccc1Nc1c(-c2ccncc2C#CC23CC(CN2C(=O)/C=C/CN(C)C)C3)[nH]c2c1C(=O)NCC2 [compound 451] | 0.1 to 1 | < 0.1 | < 0.1
< 0.1 | COc1c(Cl)cccc1Nc1c(-c2ccncc2C#C[C@H]2CCN2C(=O)/C=C/CN(C)C)[nH]c2c1C(=O)NCC2 [compound 456] | 0.1 to 1 | < 0.1 | < 0.1
< 0.1 | COc1c(Cl)cccc1Nc1c(-c2ccncc2C#C[C@@H]2CCN2C(=O)/C=C/CN(C)C)[nH]c2c1C(=O)NCC2 [compound 457] | < 0.1 | < 0.1 | < 0.1
> 1 | COc1c(F)cccc1Nc1c(-c2ccncc2C#CC2(C)CCN2C(=O)/C=C/CN(C)C)[nH]c2c1C(=O)NCC2 (stereo not drawn) [compound 462] | > 1 | > 1 | > 1
